# System: Streptococcus pyogenes (ATCC# 97-03 14289)
# Experiment: Anti-microbial screen (percent inhibition of growth, OD 570 nm)
# Type: cell-based
# Details: Spy4H: Streptococcus pyogenes, read at 4 hours, OD 570 nm; Conc 0.1776 mg ml
# Protocol: Streptococcus pyogenes (ATCC# 97-03 14289) was grown in Todd Hewitt Broth (THB) (Difco Laboratories #0492-17-6) overnight until reaching an optical density of (OD=0.636@570 nm) by reading 0.1 ml in a 96 well microtiter plate in a Molecular Devices Thermomax. This preparation was kept frozen as stocks in 30% v/v glycerol in 1.5 ml aliquots at […] until use. Prior to experiments, 6 ml aliquots were thawed and diluted into 50 ml 2×THB. 60 ul of this dilution was added to 92 wells of microtiter plate. To three wells THB (200 ul) was added to serve as a blank and a sterility control. Test compounds in DMSO and appropriate concentrations of DMSO were added to Growth/Solvent Controls at 0 time. Plates were read at 0 time at 570 nm in the Molecular Devices plate reader to obtain compounds correction factors for insoluble or colored compounds. Plates were read again at 4 hours.
# Percent inhibition is calculated with the following formula:
# Color correct=O.D. 0 hr - Blank 0 hr)-(Solvent Control Ohr - Blank 0 hr) [formula]
row,Structure (SMILES),inhibition of growth at 177.6 µg/mL [%]
1,Cc1ccc(S/C(=N/c2ccc(Cl)c(C(F)(F)F)c2)N(Cc2ccc(O)cc2)CC(C)C)cc1 [Cmpd 273],64.6
2,Cc1ccc(S/C(=N/c2ccc(F)c(F)c2)N(Cc2ccc(O)cc2)CC(C)C)cc1 [Cmpd 276],62.1
3,Cc1ccc(S/C(=N\Cc2ccc(F)cc2)N(CCc2ccc(Cl)cc2)Cc2cccc(O)c2)c(C)c1 [Cmpd 284],64
4,Cc1ccc(S/C(=N\c2ccc(C(F)(F)F)cc2)N(CCc2ccc(Cl)cc2)Cc2cccc(O)c2)c(C)c1 [Cmpd 287],97.7
5,COc1cccc(CN(Cc2cccc(O)c2)/C(=N/c2ccc(Cl)c(Cl)c2)Sc2cccc(OC)c2)c1 [Cmpd 328],98.9
6,COc1cccc(CN(Cc2cccc(O)c2)/C(=N/c2cc(Cl)cc(Cl)c2)Sc2cccc(OC)c2)c1 [Cmpd 333],67.2
7,COc1cccc(CN(Cc2cccc(O)c2)/C(=N\c2ccc(Cl)c(C(F)(F)F)c2)Sc2cccc(OC)c2)c1 [Cmpd 353],59.1
8,COc1cccc(S/C(=N\Cc2ccc(F)cc2)N(CCc2ccc(Cl)cc2)Cc2ccc(O)cc2)c1 [Cmpd 364],66.9
9,COc1cccc(S/C(=N\c2ccc(C(F)(F)F)cc2)N(CCc2ccc(Cl)cc2)Cc2ccc(O)cc2)c1 [Cmpd 367],70.5
10,COc1cccc(S/C(=N\c2cc(Cl)cc(Cl)c2)N(CCc2ccc(Cl)cc2)Cc2ccc(O)cc2)c1 [Cmpd 373],75
11,Cc1ccc(CN(Cc2cccc(O)c2)/C(=N/c2ccc(C(F)(F)F)cc2)Sc2ccc(C)cc2)cc1 [Cmpd 407],71.7
12,Cc1ccc(CN(Cc2cccc(O)c2)/C(=N/c2cc(Cl)cc(Cl)c2)Sc2ccc(C)cc2)cc1 [Cmpd 413],57.6
13,Cc1ccc(CN(Cc2cccc(O)c2)/C(=N/c2ccccc2[N+](=O)[O-])Sc2ccc(C)cc2)cc1 [Cmpd 426],67.4
14,COc1ccc(C)cc1/N=C(\Sc1ccc(C)cc1)N(Cc1ccc(C)cc1)Cc1cccc(O)c1 [Cmpd 429],79.5
15,Cc1ccc(CN(Cc2cccc(O)c2)/C(=N/c2ccc(C(F)(F)F)cc2)Sc2cccc(C)c2)cc1 [Cmpd 447],99.5
16,Cc1ccc(CN(Cc2cccc(O)c2)/C(=N/c2cc(Cl)cc(Cl)c2)Sc2cccc(C)c2)cc1 [Cmpd 453],60.5
17,Cc1ccc(CN(Cc2cccc(O)c2)/C(=N/c2ccc(Cl)c([N+](=O)[O-])c2)Sc2cccc(C)c2)cc1 [Cmpd 463],86.7
18,Cc1ccc(CN(Cc2cccc(O)c2)/C(=N/c2ccccc2[N+](=O)[O-])Sc2cccc(C)c2)cc1 [Cmpd 466],69.7

row,Structure (SMILES),inhibition of growth at 177.6 µg/mL [%]
1,Cc1ccc(CN(Cc2cccc(O)c2)/C(=N\c2ccc(Cl)c(C(F)(F)F)c2)Sc2cccc(C)c2)cc1 [Cmpd 473],57.6
2,Cc1ccc(S/C(=N/c2ccc(C(F)(F)F)cc2)N(Cc2ccccc2)Cc2ccc(O)cc2)c(C)c1 [Cmpd 487],82.8
3,Cc1cccc(S/C(=N/Cc2ccc(F)cc2)N(Cc2cccc(O)c2)CC(C)C)c1 [Cmpd 524],89.5
4,Cc1cccc(S/C(=N/c2ccc(C(F)(F)F)cc2)N(Cc2cccc(O)c2)CC(C)C)c1 [Cmpd 527],96.4
5,COc1ccc(C)cc1/N=C(/Sc1cccc(C)c1)N(Cc1cccc(O)c1)CC(C)C [Cmpd 549],62.9
6,COCCN(Cc1ccc(O)cc1)/C(=N\c1cc(Cl)cc(Cl)c1)Sc1ccc(C)cc1 [Cmpd 653],80.2
7,COCCN(Cc1ccc(O)cc1)/C(=N\c1ccc(Cl)c(C(F)(F)F)c1)Sc1ccc(C)cc1 [Cmpd 673],72.8
8,COCCN(Cc1ccc(O)cc1)/C(=N\c1ccc(F)c(F)c1)Sc1ccc(C)cc1 [Cmpd 676],87.5
9,Cc1cccc(S/C(=N\Cc2ccc(F)cc2)N(CCc2ccc(Cl)cc2)Cc2cccc(O)c2)c1 [Cmpd 684],94.1
10,Cc1cccc(S/C(=N\c2cccc(C(F)(F)F)c2)N(CCc2ccc(Cl)cc2)Cc2cccc(O)c2)c1 [Cmpd 686],68.4
11,Cc1cccc(S/C(=N\c2ccc(F)c(Cl)c2)N(CCc2ccc(Cl)cc2)Cc2cccc(O)c2)c1 [Cmpd 694],62.5
12,Cc1cccc(S/C(=N\c2ccccc2[N+](=O)[O-])N(CCc2ccc(Cl)cc2)Cc2cccc(O)c2)c1 [Cmpd 706],63.6
13,CCCCN(Cc1cccc(O)c1)/C(=N\Cc1ccc(F)cc1)Sc1ccccc1 [Cmpd 724],83.3
14,CCCCN(Cc1cccc(O)c1)/C(=N\c1cc(Cl)cc(Cl)c1)Sc1ccccc1 [Cmpd 733],63.5
15,CCCCN(Cc1cccc(O)c1)/C(=N\c1ccc(F)c(Cl)c1)Sc1ccccc1 [Cmpd 734],89.6
16,CCCCN(Cc1cccc(O)c1)/C(=N\c1ccc(Cl)c([N+](=O)[O-])c1)Sc1ccccc1 [Cmpd 743],64.2
17,CCCCN(Cc1cccc(O)c1)/C(=N\c1ccc(Cl)c(C(F)(F)F)c1)Sc1ccccc1 [Cmpd 753],66
18,CCCCN(Cc1cccc(O)c1)/C(=N\c1ccc(F)c(F)c1)Sc1ccccc1 [Cmpd 756],71.9

# Same assay, conditions: Streptococcus pyogenes; Assay Spy4H; Conc 0.1776 mg ml; plates read at 570 nm at 0 time and at 4 hours
row,Structure (SMILES),inhibition of growth at 177.6 µg/mL [%]
1,Cc1cccc(C/N=C(\Sc2ccc(C)cc2C)N(CCc2ccc(Cl)cc2)Cc2cccc(O)c2)c1 [Cmpd 282],49.8
2,Cc1ccc(S/C(=N\c2ccc(F)c(Cl)c2)N(CCc2ccc(Cl)cc2)Cc2cccc(O)c2)c(C)c1 [Cmpd 294],56.6
3,Cc1ccc(S/C(=N/c2ccc(Cl)c(C(F)(F)F)c2)N(CCc2ccc(Cl)cc2)Cc2cccc(O)c2)c(C)c1 [Cmpd 313],50.4
4,COc1cccc(CN(Cc2cccc(O)c2)/C(=N/c2ccc(C(F)(F)F)cc2)Sc2cccc(OC)c2)c1 [Cmpd 327],56.7
5,COc1cccc(CN(Cc2cccc(O)c2)/C(=N/c2ccc(F)c(Cl)c2)Sc2cccc(OC)c2)c1 [Cmpd 334],50.6
6,COc1cccc(CN(Cc2cccc(O)c2)/C(=N/c2ccc(Cl)c([N+](=O)[O-])c2)Sc2cccc(OC)c2)c1 [Cmpd 343],52.7
7,COc1cccc(S/C(=N\Cc2cccc(C)c2)N(CCc2ccc(Cl)cc2)Cc2ccc(O)cc2)c1 [Cmpd 362],50.9
8,COc1cccc(S/C(=N\c2cccc(F)c2)N(CCc2ccc(Cl)cc2)Cc2ccc(O)cc2)c1 [Cmpd 363],50.3
9,COc1cccc(S/C(=N\c2cccc(C(F)(F)F)c2)N(CCc2ccc(Cl)cc2)Cc2ccc(O)cc2)c1 [Cmpd 366],49.1
10,COc1cccc(S/C(=N\c2ccc(Cl)c([N+](=O)[O-])c2)N(CCc2ccc(Cl)cc2)Cc2ccc(O)cc2)c1 [Cmpd 383],56.7
11,COc1cccc(S/C(=N/c2ccc(Cl)c(C(F)(F)F)c2)N(CCc2ccc(Cl)cc2)Cc2ccc(O)cc2)c1 [Cmpd 393],54.5
12,COc1cccc(S/C(=N\c2ccc(F)c(F)c2)N(CCc2ccc(Cl)cc2)Cc2ccc(O)cc2)c1 [Cmpd 396],54.2
13,Cc1ccc(CN(Cc2cccc(O)c2)/C(=N/c2ccc(F)c(Cl)c2)Sc2ccc(C)cc2)cc1 [Cmpd 414],49.1
14,Cc1ccc(CN(Cc2cccc(O)c2)/C(=N/c2ccc(Cl)c([N+](=O)[O-])c2)Sc2ccc(C)cc2)cc1 [Cmpd 423],57.3
15,Cc1ccc(CN(Cc2cccc(O)c2)/C(=N\c2ccc(Cl)c(C(F)(F)F)c2)Sc2ccc(C)cc2)cc1 [Cmpd 433],51.7
16,Cc1ccc(CN(Cc2cccc(O)c2)/C(=N/Cc2ccc(F)cc2)Sc2cccc(C)c2)cc1 [Cmpd 444],56.6
17,COc1ccc(C)cc1/N=C(\Sc1cccc(C)c1)N(Cc1ccc(C)cc1)Cc1cccc(O)c1 [Cmpd 469],53
18,Cc1ccc(S/C(=N\c2cc(Cl)cc(Cl)c2)N(Cc2ccccc2)Cc2ccc(O)cc2)c(C)c1 [Cmpd 493],55.6
19,Cc1ccc(S/C(=N/c2ccc(Cl)c([N+](=O)[O-])c2)N(Cc2ccccc2)Cc2ccc(O)cc2)c(C)c1 [Cmpd 503],57.3
20,Cc1ccc(S/C(=N/c2ccc(Cl)c(C(F)(F)F)c2)N(Cc2ccccc2)Cc2ccc(O)cc2)c(C)c1 [Cmpd 513],52.9
21,Cc1cccc(S/C(=N/Cc2ccccc2)N(Cc2cccc(O)c2)CC(C)C)c1 [Cmpd 521],50.6
22,Cc1cccc(C/N=C(/Sc2cccc(C)c2)N(Cc2cccc(O)c2)CC(C)C)c1 [Cmpd 522],54.6
23,Cc1cccc(S/C(=N/c2cccc(C(F)(F)F)c2)N(Cc2cccc(O)c2)CC(C)C)c1 [Cmpd 526],50
24,Cc1cccc(S/C(=N/c2cc(Cl)cc(Cl)c2)N(Cc2cccc(O)c2)CC(C)C)c1 [Cmpd 533],52
25,CCc1cccc(/N=C(/Sc2ccc(C)cc2)N(CCOC)Cc2ccc(O)cc2)c1 [Cmpd 658],53
26,COCCN(Cc1ccc(O)cc1)/C(=N\c1ccc(Cl)c([N+](=O)[O-])c1)Sc1ccc(C)cc1 [Cmpd 663],54.8
27,COc1ccc(C)cc1/N=C(\Sc1cccc(C)c1)N(CCc1ccc(Cl)cc1)Cc1cccc(O)c1 [Cmpd 709],49.7
28,CCCCN(Cc1cccc(O)c1)/C(=N\c1ccc(C(F)(F)F)cc1)Sc1ccccc1 [Cmpd 727],56.3
